Results published in patent US8716437B2 (priority 2007, dated 2014).

How the values were obtained:
BK = molecular target: T1, BK (Mus musculus, UniProt Q08460); test: Two electrode voltage clamp, Xenopus oocytes, BK; format: cell-based
T1 construct: expressed in transfected cells; host or cells: Xenopus laevis oocytes (cRNA injection)
Protocol: (§1) To examine the effect of mokatoxin-1 on activity of potassium ion channels, cDNA encoding Rattus Kv1.1 (NCBI accession number NM_173095), Rattus Kv1.2 (NM_012970), Homo Kv1.3 (NM_002232), or Mus BK (NM_010610) were subcloned into oocyte expression vectors based on PCR3.1 and pGEM. cRNA synthesis was performed with T7 polymerase and the mMessageMachine Kit (Ambion, Austin, Tex.) according to manufacturers instructions. cRNA concentrations were determined spectroscopically. For two electrode voltage clamp recordings oocytes were extracted from Xenopus laevis and defoliculated with Collagenase Type 2 (Worthington, Lakewood, N.J.). Oocytes were maintained in ND91 solution containing 2 mM KCl, 91 mM NaCl, 1 mM MgCl2, 1.8 mM CaCl2, and 5 mM HEPES, pH 7.5, supplemented with 1% Penicillin/Streptomycin (Cellgro, Hemdon, Va.) and 0.1% Gentamycin sulfate (Gibco, Grand Island, N.Y.)) at 16° C. Stage V and VI oocytes were injected with 8 pg to 4 ng cRNA, and currents recorded 1 to 4 days later.
(§2) For dose-response measurements of toxin block of Kv1.1, Kv1,2, or Kv1.3 peak currents were recorded during a 500 ms step to 0 mV from a holding voltage of −100 mV, followed by a 200 ms step to −135 mV every 30 s. To determine the kinetics of toxin block oocytes were held at −100 mV and stepped to the test voltage of 0 mV for 100 ms followed by a 200 ms duration step to −135 mV every 2 s. BK currents were recorded during a 50 ms step to +60 mV from a holding voltage of −80 mV, followed by a 40 ms step to −100 mV every 3 s. The perfusion solution contained 2 mM KCl, 96 mM NaCl, 1 mM MgCl2, 1.8 mM CaCl2, 5 mM HEPES, pH 7.5 and 0.1% fatty acid ultra-free BSA fraction V (Roche Diagnostics Corporation, Indianapolis, Ind.). Data acquisition and processing was performed with an oocyte clamp OC-725B (Warner Instruments Corporation, Hamden, Conn.), pCLAMP (Axon, Sunnyvale, Calif.), IGOR Pro (WaveMetrics, Lake Oswego, Oreg.), and Origin6.1 (OriginLab Corporation, Northampton, Mass.) softwares. The equilibrium dissociation rates (KD) for block of Kv1.1, Kv1.2, and Kv1.3 by mokatoxin-1 were determined by fitting the dose-response data and kon and koff were calculated as described by Goldstein and Miller, 1993 (Biophys J. 1993 65 (4):1613-1619).

guinea pig ileum [1] = test: Spontaneous motility (twitches) of guinea pig ileum strips; settings: reference toxins 10 nM; mokatoxin-1 1-100 nM
Kv1.2 = molecular target: T2, Kv1.2 (Rattus norvegicus, UniProt P63142); test: Two electrode voltage clamp, Xenopus oocytes, Kv1.2; format: cell-based
T2 construct: expressed in transfected cells; host or cells: Xenopus laevis oocytes (cRNA injection)
T2 sequence (P63142 whole entry): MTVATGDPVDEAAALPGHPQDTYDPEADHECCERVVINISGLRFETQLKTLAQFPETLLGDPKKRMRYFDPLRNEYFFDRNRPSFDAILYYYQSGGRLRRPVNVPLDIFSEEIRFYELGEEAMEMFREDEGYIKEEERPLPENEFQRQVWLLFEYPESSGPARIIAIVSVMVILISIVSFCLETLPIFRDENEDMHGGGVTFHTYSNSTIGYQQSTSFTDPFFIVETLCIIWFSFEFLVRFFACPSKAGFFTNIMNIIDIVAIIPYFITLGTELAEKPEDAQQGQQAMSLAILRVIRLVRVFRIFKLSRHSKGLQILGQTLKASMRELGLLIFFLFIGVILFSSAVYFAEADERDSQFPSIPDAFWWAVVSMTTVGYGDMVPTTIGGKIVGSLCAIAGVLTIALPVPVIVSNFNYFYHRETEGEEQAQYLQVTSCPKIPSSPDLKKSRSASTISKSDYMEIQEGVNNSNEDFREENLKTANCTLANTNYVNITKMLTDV
Protocol: as §1, §2

Kv1.3 = Kv1.3 (Homo sapiens, UniProt P22001); test: Two electrode voltage clamp, Xenopus oocytes, Kv1.3; format: cell-based; design: expressed in transfected cells; host or cells: Xenopus laevis oocytes (cRNA injection)
Kv1.3, sequence (P22001 whole entry): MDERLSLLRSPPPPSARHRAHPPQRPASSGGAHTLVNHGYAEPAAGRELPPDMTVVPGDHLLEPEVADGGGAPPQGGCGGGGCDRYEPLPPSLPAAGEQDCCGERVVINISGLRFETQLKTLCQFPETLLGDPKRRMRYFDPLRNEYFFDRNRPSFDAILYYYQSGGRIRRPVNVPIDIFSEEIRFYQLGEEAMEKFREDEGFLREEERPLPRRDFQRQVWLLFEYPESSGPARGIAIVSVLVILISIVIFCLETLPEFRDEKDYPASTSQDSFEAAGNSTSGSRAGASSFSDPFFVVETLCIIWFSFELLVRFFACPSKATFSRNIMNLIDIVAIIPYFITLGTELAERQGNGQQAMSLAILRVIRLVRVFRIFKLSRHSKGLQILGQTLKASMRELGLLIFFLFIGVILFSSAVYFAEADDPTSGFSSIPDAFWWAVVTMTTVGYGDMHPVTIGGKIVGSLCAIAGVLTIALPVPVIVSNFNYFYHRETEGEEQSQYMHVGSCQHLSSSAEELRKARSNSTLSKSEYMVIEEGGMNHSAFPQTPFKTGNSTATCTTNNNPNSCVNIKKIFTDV
Description: Thereafter, MK-1 was synthesized. […] The blocking of […] by MK-1 is represented by filled circles; the blocking of Kv1.2 by MK-1 is represented by filled diamonds; and the blocking of Kv1.1 by MK-1 is represented by filled triangles.
as §1, §2

Kv1.1 = molecular target: T3, Kv1.1 (Rattus norvegicus, UniProt P10499); test: Two electrode voltage clamp, Xenopus oocytes, Kv1.1; format: cell-based
T3 construct: expressed in transfected cells; host or cells: Xenopus laevis oocytes (cRNA injection)
T3 sequence (P10499 whole entry): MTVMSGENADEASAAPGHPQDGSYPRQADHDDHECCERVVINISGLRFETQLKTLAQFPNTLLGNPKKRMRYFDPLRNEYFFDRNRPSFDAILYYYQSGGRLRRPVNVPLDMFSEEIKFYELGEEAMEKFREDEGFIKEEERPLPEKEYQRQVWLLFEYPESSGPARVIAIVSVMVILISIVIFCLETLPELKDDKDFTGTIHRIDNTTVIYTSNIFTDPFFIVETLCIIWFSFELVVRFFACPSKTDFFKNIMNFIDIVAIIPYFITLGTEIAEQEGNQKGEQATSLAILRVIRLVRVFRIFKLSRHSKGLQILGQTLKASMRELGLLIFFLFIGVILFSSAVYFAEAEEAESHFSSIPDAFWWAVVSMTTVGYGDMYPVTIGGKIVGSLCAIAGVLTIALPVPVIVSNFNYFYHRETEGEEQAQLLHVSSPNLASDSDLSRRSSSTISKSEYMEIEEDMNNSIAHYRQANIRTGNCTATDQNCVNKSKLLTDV
Protocol: as §1, §2

guinea pig ileum [2] = settings: J Pharmacol Exp Ther. 1999; cited from earlier work

T1 sequence (Q08460 whole entry): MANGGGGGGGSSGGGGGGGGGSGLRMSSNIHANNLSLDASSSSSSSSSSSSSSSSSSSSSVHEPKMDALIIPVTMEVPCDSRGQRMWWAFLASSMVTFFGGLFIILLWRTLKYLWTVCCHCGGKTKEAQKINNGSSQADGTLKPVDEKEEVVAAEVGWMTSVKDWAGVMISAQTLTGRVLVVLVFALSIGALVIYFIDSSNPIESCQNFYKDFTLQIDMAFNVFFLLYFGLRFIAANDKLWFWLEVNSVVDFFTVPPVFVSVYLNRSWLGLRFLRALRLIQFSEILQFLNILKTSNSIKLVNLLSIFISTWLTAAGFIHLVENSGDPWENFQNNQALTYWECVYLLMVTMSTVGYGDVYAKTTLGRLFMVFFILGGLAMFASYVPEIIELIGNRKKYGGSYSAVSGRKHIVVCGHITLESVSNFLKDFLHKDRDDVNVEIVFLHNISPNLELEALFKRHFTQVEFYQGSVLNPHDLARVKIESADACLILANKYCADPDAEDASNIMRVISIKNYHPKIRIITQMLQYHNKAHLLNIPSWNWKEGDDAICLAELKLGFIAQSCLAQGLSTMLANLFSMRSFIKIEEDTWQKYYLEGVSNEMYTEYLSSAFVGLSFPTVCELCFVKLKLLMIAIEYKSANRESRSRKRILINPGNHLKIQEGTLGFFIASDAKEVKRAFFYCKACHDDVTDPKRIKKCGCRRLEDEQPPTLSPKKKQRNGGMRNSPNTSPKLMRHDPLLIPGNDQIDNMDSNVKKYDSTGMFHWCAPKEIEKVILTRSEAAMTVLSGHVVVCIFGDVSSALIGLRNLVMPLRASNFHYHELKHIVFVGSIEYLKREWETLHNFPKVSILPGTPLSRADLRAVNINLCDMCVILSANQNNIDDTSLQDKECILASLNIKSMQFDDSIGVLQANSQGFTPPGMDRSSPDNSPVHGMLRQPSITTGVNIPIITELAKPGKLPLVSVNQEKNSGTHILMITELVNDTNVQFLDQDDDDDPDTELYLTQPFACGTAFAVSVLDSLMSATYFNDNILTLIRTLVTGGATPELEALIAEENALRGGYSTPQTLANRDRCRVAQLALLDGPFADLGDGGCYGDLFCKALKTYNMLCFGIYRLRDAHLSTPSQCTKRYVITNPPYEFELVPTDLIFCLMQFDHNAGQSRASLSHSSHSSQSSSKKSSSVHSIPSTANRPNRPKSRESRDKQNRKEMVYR

CC[C@H](C)[C@H](NC(=O)[C@H](CCC(=O)O)NC(=O)[C@@H](NC(=O)CN)C(C)C)C(=O)N[C@@H](CC(N)=O)C(=O)N[C@H](C(=O)N[C@@H](CCCCN)C(=O)N[C@H]1CSSC[C@@H]2NC(=O)[C@H](CCCCN)NC(=O)CNC(=O)[C@H](Cc3ccccc3)NC(=O)[C@H](CCCNC(=N)N)NC(=O)[C@H](CCSC)NC(=O)CNC(=O)[C@H](C)NC(=O)[C@H](CC(=O)O)NC(=O)[C@H](CCCCN)NC(=O)[C@@H]3CSSC[C@@H](C(=O)N[C@H](C(=O)N4CCC[C@H]4C(=O)N[C@@H](CCCCN)C(=O)O)[C@@H](C)O)NC(=O)[C@H](Cc4c[nH]cn4)NC(=O)[C@H](CSSC[C@H](NC(=O)[C@H](CCC(N)=O)NC(=O)[C@@H]4CCCN4C(=O)[C@H](CO)NC(=O)CNC(=O)[C@H](CO)NC1=O)C(=O)N[C@@H](CC(C)C)C(=O)N[C@@H](CCCCN)C(=O)N1CCC[C@H]1C(=O)N3)NC(=O)[C@H](CCCCN)NC(=O)[C@H](CCCNC(=N)N)NC(=O)[C@H](CC(N)=O)NC(=O)[C@H](CCSC)NC2=O)C(C)C [KTX, kaliotoxin-1]
IC50 (BK): ~5 nM
Koff [s]^−1 (BK; mBK): 0.0211 ± 0.0008 [s]^−1
Kon [M · s]^−1 (BK; mBK): 21 · 10^3 ± 4 · 10^3 [M · s]^−1
induction of twitches in ileum strips (guinea pig ileum [1]): induced twitches
IC50 (Kv1.2): 1.4 nM
Koff [s]^−1 (Kv1.2; rKv1.2): 0.21 ± 0.01 [s]^−1
Kon [M · s]^−1 (Kv1.2; rKv1.2): 13 · 10^6 ± 3 · 10^6 [M · s]^−1
IC50 (Kv1.3): 0.5 nM
Koff [s]^−1 (Kv1.3; hKv1.3): 0.0070 ± 0.0009 [s]^−1
Kon [M · s]^−1 (Kv1.3; hKv1.3): 8 · 10^8 ± 1 · 10^8 [M · s]^−1
IC50 (Kv1.1): 0.1 nM
Koff [s]^−1 (Kv1.1; rKv1.1): 0.009 ± 0.002 [s]^−1
Kon [M · s]^−1 (Kv1.1; rKv1.1): 30 · 10^6 ± 16 · 10^6 [M · s]^−1
ileum contractions (guinea pig ileum [2]): contractions
